Results as given in patent publication US10473645B2, “Methods for identifying a receptor for a ligand and uses thereof” (UNIVERSITE DE GENEVE, priority 2014, dated 2019).

Columns and labels:
Assay in all cases: OR transcript level by RT-qPCR after in vivo odorant exposure
Olfr556 = biological target: T1, Olfr556 (Mus musculus, UniProt B2RRG2); design: from tissue; host or cells: main olfactory epithelium of exposed mice; key to olfr556 candidate OR (RNAseq) confirmed by qPCR: The transcript downregulation of 21 out of the 26 olfactory receptor candidates obtained by RNAseq was confirmed by qPCR; false RNAseq positive candidates, namely OR candidates for which in fact mRNA was not downregulated following acetophenone exposure; details: for Olfr556 mRNA level relative to unexposed controls: 5% odorant, 5 hours, in vivo, RT-qPCR
T1 sequence (B2RRG2 1-324): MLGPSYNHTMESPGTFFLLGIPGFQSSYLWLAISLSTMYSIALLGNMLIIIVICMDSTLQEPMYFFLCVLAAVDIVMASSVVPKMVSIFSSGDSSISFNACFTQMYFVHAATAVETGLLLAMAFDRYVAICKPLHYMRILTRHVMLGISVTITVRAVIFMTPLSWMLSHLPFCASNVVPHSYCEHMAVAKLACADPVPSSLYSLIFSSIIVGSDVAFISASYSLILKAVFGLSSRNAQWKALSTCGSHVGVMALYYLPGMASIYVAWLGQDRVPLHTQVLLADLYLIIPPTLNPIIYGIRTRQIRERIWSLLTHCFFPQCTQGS
Procedure: (§1) In vivo exposure to odorant: Starting 48 h before experiments, mice were habituated to pure DMSO on a cotton ball. 200 μl were pipetted directly onto the cotton and placed in the cage, replacing any cotton that was already in the cage for nest-making purposes.
On the day of the experiment, mice receiving odorants were transferred to a different room, where they were exposed to a cotton ball on which 200 μl of odorant diluted in pure DMSO were deposited. […] […] If a number of different odorants were tested in the same experiment, a different overpressurized room would always be used for each odorant to avoid odor cross-contamination.
(§2) After odorant exposure, mice were killed by cervical dislocation and immediately decapitated. The main olfactory epithelia (MOE), were harvested in their entirety and transferred to a tube containing 600 μl of lysis buffer and β-mercaptoethanol (RNAeasy kit, Qiagen, following the manufacturer protocol) and a 0.5 cm diameter steel ball, and then put on ice. Samples were then homogenized using a FastPrep®-24 instrument (MP Biomedicals) at 6 m/s for 30 s and left on ice. RNA extraction was performed on all samples in parallel using the Qiagen RNeasy Mini® kit following the manufacturer's instructions. Two DNase treatments were performed on all samples: first using the Qiagen RNase-Free DNase Set® and then using the Life Technologies Ambion DNase I® kit. RNA samples were then aliquoted and stored at −80° C.
(§3) RNA concentrations were determined using an Amersham Ultrospec® 3100 Pro spectrophotometer, and RNA quality was evaluated with an Agilent Technologies 2100 Bioanalyzer®. Each reverse transcription was performed with 0.5 μg RNA using the Takara Primescript® kit, in a final volume of 10 μl. Primers for reverse transcription were equal mixtures of poly-T nucleotides and random hexamers. Negative controls (omitting the reverse transcriptase enzyme) were performed for each sample. 1/14th of the cDNA preparation was used for each triplicated qPCR reaction.
qPCR Ct values were analyzed using an in-house developed Microsoft Excel® macro file. Triplicate values were compared and outliers (values with a difference higher than 0.5 Ct to their nearest neighbor) were discarded. The number of conditions with an outlying value was always less than 10% of the total number of conditions. Ct values were converted to quantities relative to the maximum for each given gene. Selected reference genes were then analyzed for variance using the geNorm algorithm. All values were normalized with the olfactory tissue-specific genes Omp and Adcy3. β-Actin was used as a non-tissue-specific reference gene to control for differences in dissection between samples. […]

olfr143 = biological target: T2, olfr143 (Mus musculus, UniProt P34985); design: key: The transcript downregulation of 21 out of the 26 olfactory receptor candidates obtained by RNAseq was confirmed by qPCR; false RNAseq positive candidates, namely OR candidates for which in fact mRNA was not downregulated following acetophenone exposure; details: 5% acetophenone exposure
T2 construct: from tissue; host or cells: main olfactory epithelium of living mice
T2 sequence (P34985 whole entry): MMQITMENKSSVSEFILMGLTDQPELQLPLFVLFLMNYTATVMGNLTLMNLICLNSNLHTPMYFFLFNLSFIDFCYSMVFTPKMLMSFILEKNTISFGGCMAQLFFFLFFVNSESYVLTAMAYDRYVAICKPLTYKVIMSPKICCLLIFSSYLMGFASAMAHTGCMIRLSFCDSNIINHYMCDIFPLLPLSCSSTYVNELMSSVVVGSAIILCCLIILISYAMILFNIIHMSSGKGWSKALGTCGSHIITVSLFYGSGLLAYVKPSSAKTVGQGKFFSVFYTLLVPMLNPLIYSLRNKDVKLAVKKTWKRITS
Procedure: as §1
(§4) On the day of the experiment, mice receiving odorants were transferred to a different room, where they were exposed to a cotton ball on which 200 μl of odorant diluted in pure DMSO were deposited. Exposures started in the morning between 8 and 10 am (that is two hours after lights were on) and mice were killed and dissected between 1 and 3 pm. […] If a number of different odorants were tested in the same experiment, a different overpressurized room would always be used for each odorant to avoid odor cross-contamination.
as §2, §3
(§5) qPCR Ct values were analyzed using an in-house developed Microsoft Excel® macro file. Triplicate values were compared and outliers (values with a difference higher than 0.5 Ct to their nearest neighbor) were discarded. The number of conditions with an outlying value was always less than 10% of the total number of conditions. Ct values were converted to quantities relative to the maximum for each given gene. Selected reference genes were then analyzed for variance using the geNorm algorithm. All values were normalized with the olfactory tissue-specific genes Omp and Adcy3. β-Actin was used as a non-tissue-specific reference gene to control for differences in dissection between samples.
(§6) Mice (n=6) were exposed to 5% acetophenone or to a “neutral” control condition for 5 hours. An olfactory cDNA library corresponding to each animal was deep sequenced and the ratios of odorant receptor mRNA concentrations relative to controls were plotted (FIG. 3). […] Based on transcriptional downregulation levels observed by RNAseq following acetophenone exposure, a list of 26 candidate responsive ORs was determined (FIG. 3), that reached 74% decrease (Olfr145) or even over 80% (Olfr169) relative to controls. […] The transcript downregulation of 21 out of the 26 olfactory receptor candidates obtained by RNAseq was confirmed by qPCR.

olfr478 = biological target: T3, olfr478 (Mus musculus, UniProt Q8VG04); design: key: The transcript downregulation of 21 out of the 26 olfactory receptor candidates obtained by RNAseq was confirmed by qPCR; false RNAseq positive candidates, namely OR candidates for which in fact mRNA was not downregulated following acetophenone exposure; details: 5% acetophenone exposure
T3 construct: from tissue; host or cells: main olfactory epithelium of living mice
T3 sequence (Q8VG04 whole entry): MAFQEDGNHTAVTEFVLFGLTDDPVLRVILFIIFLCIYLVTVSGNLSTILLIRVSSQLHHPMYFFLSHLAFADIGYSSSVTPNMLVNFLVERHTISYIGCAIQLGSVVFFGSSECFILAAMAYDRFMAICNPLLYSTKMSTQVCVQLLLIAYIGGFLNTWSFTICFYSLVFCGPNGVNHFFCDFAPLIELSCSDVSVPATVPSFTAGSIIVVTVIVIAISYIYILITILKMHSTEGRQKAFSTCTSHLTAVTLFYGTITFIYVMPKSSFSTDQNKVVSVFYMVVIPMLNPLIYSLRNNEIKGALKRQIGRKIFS
Procedure: as §1, §4, §2, §3, §5, §6

olfr19 = biological target: T4, olfr19 (Mus musculus, UniProt Q9JHB2); design: key: The transcript downregulation of 21 out of the 26 olfactory receptor candidates obtained by RNAseq was confirmed by qPCR; false RNAseq positive candidates, namely OR candidates for which in fact mRNA was not downregulated following acetophenone exposure; details: 5% acetophenone exposure
T4 construct: from tissue; host or cells: main olfactory epithelium of living mice
T4 sequence (Q9JHB2 whole entry): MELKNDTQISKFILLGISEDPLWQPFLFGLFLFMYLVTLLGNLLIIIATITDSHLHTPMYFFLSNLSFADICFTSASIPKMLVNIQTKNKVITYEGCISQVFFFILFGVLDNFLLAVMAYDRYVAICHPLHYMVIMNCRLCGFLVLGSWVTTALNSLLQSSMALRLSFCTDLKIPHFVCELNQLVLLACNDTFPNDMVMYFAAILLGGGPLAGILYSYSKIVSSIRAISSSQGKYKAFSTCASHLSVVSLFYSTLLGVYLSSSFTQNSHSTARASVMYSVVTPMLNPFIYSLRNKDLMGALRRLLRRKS
Procedure: as §1, §4, §2, §3, §5, §6

olfr490 = biological target: T5, olfr490 (Mus musculus, UniProt Q8VFD2); design: key: The transcript downregulation of 21 out of the 26 olfactory receptor candidates obtained by RNAseq was confirmed by qPCR; false RNAseq positive candidates, namely OR candidates for which in fact mRNA was not downregulated following acetophenone exposure; details: 5% acetophenone exposure
T5 construct: from tissue; host or cells: main olfactory epithelium of living C57BL/6 mice
T5 sequence (Q8VFD2 whole entry): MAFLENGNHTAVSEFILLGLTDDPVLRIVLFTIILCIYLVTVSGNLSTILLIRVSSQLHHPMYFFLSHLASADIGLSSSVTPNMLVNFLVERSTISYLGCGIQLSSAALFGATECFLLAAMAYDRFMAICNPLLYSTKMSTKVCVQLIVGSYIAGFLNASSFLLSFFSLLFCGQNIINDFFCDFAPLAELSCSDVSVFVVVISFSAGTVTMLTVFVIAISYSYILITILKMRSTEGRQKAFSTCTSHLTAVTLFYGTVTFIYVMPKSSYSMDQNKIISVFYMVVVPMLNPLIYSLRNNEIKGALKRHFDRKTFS
Procedure: as §1, §4, §2, §3, §5, §6

CC(=O)c1ccccc1 [acetophenone]
olfr556 candidate OR (RNAseq) confirmed by qPCR (Olfr556; 5% acetophenone exposure): y | Olfr556 mRNA level relative to unexposed controls (Olfr556): decrease | Olfr556 mRNA level relative to unexposed controls (Olfr556; listed as Acetophenone): downregulates | olfr143 candidate OR (RNAseq) confirmed by qPCR (olfr143): y | olfr478 candidate OR (RNAseq) confirmed by qPCR (olfr478): y | olfr19 candidate OR (RNAseq) confirmed by qPCR (olfr19): y | olfr490 candidate OR (RNAseq) confirmed by qPCR (olfr490): n
